These results are taken from US6214969A, “Luteinizing hormone releasing hormone analogs with cytotoxic moiety” (The Administrators of the Tulane Educational Fund, priority 1993, dated 2001).

Assay [1] deals with MCF-7 human breast cancer cell line. Put plainly: Inhibition of 3H-thymidine incorporation into DNA, MCF-7. The class given is cell-based. Here is the method:
Ability of peptides of Formula I to inhibit incorporation of [^3 H]thymidine into DNA of monolayer cultures the human mammary tumor cell line MCF-7 is assayed as described [V. K. Sondak et al., Cancer Research, 44, 1725-1728 (1984); F. Holzel et al., J. Cancer Res. Clin. Oncol. 109, 217-226 (1985); M. Albert et al., J. Cancer Res. Clin. Oncol. 109, 210-216 (1985)].
(§1) 200,000 cells in 200 μl of […]+2% CFBS were incubated with 1, 5 or 10 μg cytotoxic analogs for 3 hours or 23 hours then 1 μCi ^3 H-thymidine added and incubated an additional 60 min. DNA extracted with 1 N perchloric acid and the radioactivity measured.
A general note: Uptake of a labelled nucleoside into DNA is a usual measure of proliferation.

Assay [2] relates to ovulation in 4-day cycling rats. The assay is described as follows: In vivo antiovulatory activity in 4-day-cycling rats. Particulars: 10 μg per rat. Here is the method: This activity of the peptides is determined in 4-day-cycling rats as described [A. Corbin and C. W. Beattie, Endocr. Res. Commun., 2, 1-23 (1975)].
(§2) Table 2 presents the antiovulatory activity and human breast cancer cell membrane receptor binding affinity of the claimed compounds having LHRH-inhibiting properties. The inhibitory action was determined in vivo, in 4-day cycling rats as described [A. Corbin and C. W. Beattie, Endocr. Res. Commun., 2, 1-23 (1975)].

The target of assay [3] is T1, membrane receptors of human breast cancer cells (LHRH receptors) (Homo sapiens, UniProt P30968).
T1 construct: from tissue
T1 sequence (P30968 1-328): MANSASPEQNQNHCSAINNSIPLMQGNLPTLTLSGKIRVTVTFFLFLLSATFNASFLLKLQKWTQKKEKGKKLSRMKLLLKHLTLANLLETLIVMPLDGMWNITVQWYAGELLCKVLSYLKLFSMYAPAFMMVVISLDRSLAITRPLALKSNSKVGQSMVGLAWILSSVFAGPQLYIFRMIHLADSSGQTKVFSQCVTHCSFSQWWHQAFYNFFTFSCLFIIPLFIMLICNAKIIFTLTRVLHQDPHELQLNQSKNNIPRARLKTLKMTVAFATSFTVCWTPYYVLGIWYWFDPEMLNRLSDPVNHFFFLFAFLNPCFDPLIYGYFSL
Put plainly: Receptor binding affinity for human breast cancer cell membranes, 125I-[D-Trp]6 LHRH as labelled ligand. Particulars: 125I-[D-Trp]6 LHRH ligand, NB = no binding. Here is the method: Affinity for peptides to human breast cancer cell membranes is determined by using labelled LHRH and [D-Trp^6 ]LHRH. The assay is carried out similarly to that described by T. Kadar et al., Proc. Natl. Acad. Sci. USA, 85, 890-894 (1988) and M. Fekete et al., Endocrinology, 124, 946-955 (1989).
as §2

The next assay relates to SkBr-3 Cell line. Put plainly: Inhibition of 3H-thymidine incorporation into DNA, SkBr-3. The class given is cell-based, human. Here is the method: as §1
The next assay deals with T47D Cell line. Put plainly: Inhibition of 3H-thymidine incorporation into DNA, T47D. The class given is cell-based, human. Here is the method: as §1
In another assay the test system is MDA-MB-231 Cell Line. Put plainly: Inhibition of 3H-thymidine incorporation into DNA, MDA-MB-231. The class given is cell-based, human. The procedure: as §1
In assay [4] the test system is dispersed rat pituitary cells (LH release). Put plainly: LH-releasing activity in superfused rat pituitary cell system. The format is cell-based. Particulars: Table 1; compared to that produced by 3 nM LH-RH; peptide infused 3 min. The source says:
B. Greenstein, Harwood Academic Publishers, London, (1990)].

The test system of assay [5] is human mammary cell line MDA-MB-231. Particulars: 10 μg dose; cited from earlier work.

The term % Inhibition denotes the drop in the measured response relative to a control, in per cent. High values mean a response far below the control, low ones a response near the control.

Take “Ac-D-Nal(2)-D-Phe(4Cl)-D-Trp-Ser-Arg-D-Lys(D-Mel)-Leu-Arg-Pro-D-Ala-NH. sub.2 [compound 19]”: the entries for the “% Inhibition at 24 hrs” value in assay [1] (dose 1 μg/ml) and in assay [1] (dose 10 μg/ml) were 34% and 49%, respectively. In addition, in assay [2], the “% Ovulation Blocked” value is 40%. Also, in assay [3] (Table 2 (antagonists)), the “Affinity Constant Ka2” value was found to be 32.54 µM⁻¹.

For the substance “Ac-D-Nal(2)-D-Phe(4Cl)-D-Trp-Ser-Tyr-D-Lys(D-Mel)-Leu-Arg-Pro-D-Ala-NH. sub.2 [compound 15]”, the “% Ovulation Blocked” value in assay [2] amounted to 100%. In addition, in assay [3] (Table 2 (antagonists)), the “Affinity Constant Ka1” value is 3.58 nM⁻¹.

Take “pGlu-His-Trp-Ser-Tyr-D-Orn(MTX)-Leu-Arg-Pro-Gly-NH2 [compound 11]”: in assay [1] (dose 1 μg/ml), the “% Inhibition at 4 hrs” value is recorded as 34% and the “% Inhibition at 24 hrs” value is 7%. For the same substance, in assay [1] (dose 10 μg/ml), the “% Inhibition at 4 hrs” value amounted to 29% and the “% Inhibition at 24 hrs” value is given as 3%.

Regarding “Ac-D-Nal(2)-D-Phe(4Cl)-D-Trp-Ser-Tyr-D-Lys(MTX)-Leu-Arg-Pro-D-Ala-NH2 [compound 18]”, in assay [3] (Table 2 (antagonists)), the “Affinity Constant Ka1” value turned out to be 3.58 nM⁻¹ and the “Affinity Constant Ka2” value came to 1.07 µM⁻¹.

In the case of “pGlu-His-Trp-Ser-Tyr-D-Lys(Glt-DOX)-Leu-Arg-Pro-Gly-NH2 [compound 33]”, the “% Inhibition at 4 hrs” value in the assay on SkBr-3 Cell line (dose 1 μg/ml) was 27%; with SkBr-3 Cell line (dose 10 μg/ml) it was 24%; with T47D Cell line (dose 1 μg/ml), 32%; in the assay with T47D Cell line (dose 10 μg/ml) it was 44%; in assay [1] (dose 1 μg/ml) it was 19%; in assay [1] (dose 5 μg/ml), 34%. Moreover, the figures for the “% Inhibition at 4 hrs” value in the assay with MDA-MB-231 Cell Line (dose 1 μg/ml) and in the assay on MDA-MB-231 Cell Line (dose 10 μg/ml) were 20% and 9%, respectively. For the same substance, the “% Inhibition at 24 hrs” value with SkBr-3 Cell line (dose 1 μg/ml) came to 0%; in the assay on SkBr-3 Cell line (dose 10 μg/ml) it was 14%; in the assay on T47D Cell line (dose 1 μg/ml), 11%; in the assay with T47D Cell line (dose 10 μg/ml), 10%; in assay [1] (dose 1 μg/ml), 0%; in assay [1] (dose 5 μg/ml), 61%. The “% Inhibition at 24 hrs” value in the assay on MDA-MB-231 Cell Line (dose 1 μg/ml) and in the assay on MDA-MB-231 Cell Line (dose 10 μg/ml) was 0% in each case. For the same substance, the “Affinity Constant Ka2” value in assay [3] (Table 1 (agonists)) stood at 14.4 µM⁻¹. Also, in assay [4], the “Relative Activity (LH-releasing activity)” value is 12.

“pGlu-His-Trp-Ser-Tyr-D-Lys(MTX)-Leu-Arg-Pro-Gly-NH2 [compound 4]”: the “% Inhibition at 4 hrs” value with SkBr-3 Cell line (dose 1 μg/ml) is 21%; in the assay with SkBr-3 Cell line (dose 10 μg/ml), 36%; in the assay on T47D Cell line (dose 1 μg/ml) it was 38%; in the assay with T47D Cell line (dose 10 μg/ml), 54%; with MDA-MB-231 Cell Line (dose 1 μg/ml), 23%; in the assay on MDA-MB-231 Cell Line (dose 10 μg/ml) it was 31%. Moreover, the “% Inhibition at 24 hrs” value in the assay with SkBr-3 Cell line (dose 1 μg/ml) is listed as 16%; in the assay on SkBr-3 Cell line (dose 10 μg/ml), 10%; in the assay on T47D Cell line (dose 1 μg/ml), 26%; in the assay on T47D Cell line (dose 10 μg/ml), 41%; with MDA-MB-231 Cell Line (dose 1 μg/ml) it was 0%; in the assay with MDA-MB-231 Cell Line (dose 10 μg/ml), 8%.

For the substance “pGlu-His-Trp-Ser-Tyr-D-Lys[Ahx-A2 bu(SAL)2 (Cu)]-Leu-Arg-Pro-Gly-NH2”, the “inhibition of [3H]thymidine incorporation into DNA” value in assay [5] is given as 87%.

With “pGlu-His-Trp-Ser-Tyr-D-Lys(MTX)-Leu-Arg-Pro-Gly-NH2 [4B]”, the “Affinity Constant Ka1” value in assay [3] (Table 1 (agonists)) is 0.63 nM⁻¹.

Consider “pGlu-His-Trp-Ser-Tyr-D-Lys(MTX)-Leu-Arg-Pro-Gly-NH2 [4A]”, for which, in assay [3] (Table 1 (agonists)), the “Affinity Constant Ka1” value is 5.42 nM⁻¹ and the “Affinity Constant Ka2” value came to 1.59 µM⁻¹.

As to “Ac-D-Nal(2)-D-Phe(4Cl)-D-Pal(3)-Ser-Arg-D-Lys(MTX)-Leu-Arg-Pro-D-Ala-NH. sub.2 [compound 29]”, the entries for the “% Inhibition at 24 hrs” value in assay [1] (dose 1 μg/ml) and in assay [1] (dose 10 μg/ml) were 10% and 16%, respectively. Besides, the “% Ovulation Blocked” value in assay [2] worked out at 100%. The “Affinity Constant Ka1” value in assay [3] (Table 2 (antagonists)) was 0.44 nM⁻¹. Further, the “Affinity Constant Ka2” value in assay [3] (Table 2 (antagonists)) is 1.04 µM⁻¹.

In the case of “pGlu-His-Trp-Ser-Tyr-D-Lys[Ahx(MTX)]-Leu-Arg-Pro-Gly-NH2 [compound 34]”, the “% Inhibition at 24 hrs” value in assay [1] (dose 1 μg/ml) came out at 16%; in assay [1] (dose 10 μg/ml), 21%. Further, the “Affinity Constant Ka1” value in assay [3] (Table 1 (agonists)) stood at 4.42 nM⁻¹. Also, the “Relative Activity (LH-releasing activity)” value in assay [4] was determined as 6.7.
